IC50 and inhibition in vivo data for nine compounds are collected here from patent publication US6048854A, “2,3-diaminopropionic acid derivative” (Sumitomo Pharmaceuticals Company, Limited, priority 1993, dated 2000).

Read-outs that look alike come from different tables or passages of the source.

Assay [1] relates to platelet aggregation. Kind of assay: Platelet aggregation inhibitory activity (ADP-induced, human platelet rich plasma). To be noted: Homo sapiens. The assay is classed as cell-based. A digest of the protocol: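 Citrated human platelet-rich plasma […] was stirred with test compound for 2 min at 37 °C. Aggregation was then induced with ADP at 3 μg/ml final and monitored by nephelometry. IC50 is the concentration giving 50% inhibition of aggregation.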

The target of another assay is T1, human fibrinogen (Homo sapiens, UniProt P05106+P08514).
T1 construct: centrifuged at 11000 rpm for two minutes to give human platelet; from tissue
Kind of assay: Binding assay of platelet to adhesive protein: fibrinogen (receptor binding inhibition). To be noted: Table 4; fixed activated human platelets, 37° C., 60 minutes. As for the experimental part: (§1) The blood was taken out from the elbow vein of a normal volunteer, and mixed with 1/10 volume of 3.8% sodium citrate. The blood was centrifuged at 1,000 rpm (150 g) for 10 minutes, and the supernatant is collected as a platelet rich plasma (PRP). The precipitates are centrifuged at 11,000 rpm (6000 g) for two minutes, and the supernatant is collected as a platelet poor plasma (PPP). To PRP is added prostaglandin I2 (PGl2) at a final concentration of 50 ng/ml, and the mixture was centrifuged at 11000 rpm for two minutes to give human platelet. The platelet was activated by washing with 3.8 mM HEPES-buffer (pH 7.4, Tyrode-HEPES buffer) containing 0.14 M sodium chloride, 2.7 mM potassium chloride, 3.7 mM sodium dihydrogen phosphate, 0.98 mM magnesium chloride, 1 mg/ml glucose, 50 ng/ml PGl2 and 0.35% bovine serum albumin (BSA), adding thereto 5 μM epinephrine, and 30 μM ADP (adenosine diphosphate), followed by being allowed to stand at room temperature for five minutes. To the activated platelet was added 0.05% p-formaldehyde, and the mixture was allowed to stand at room temperature for 30 minutes to give the fixed platelet, which was suspended in Tyrode-HEPES buffer to give a platelet suspension of a concentration of 2×10^8 ml^-1.
(§2) Human fibrinogen from which fibronectin was previously removed by passing through gelatin-cepharose, human fibronectin or human vitronectin was diluted with 0.1 M aqueous sodium hydrogen carbonate solution to a concentration of 5 μg/ml, and the protein solution is put into a 96-well microplate at a volume of 200 μl/well. The microplate was allowed to stand at 4° C. overnight. The plate was washed with phosphate buffered saline (PBS), and subjected to blocking with 3% BSA at 37° C. for one hour. To the plate were added a platelet suspension (final concentration, 10^8 ml^-1) and a test compound of various concentrations (total volume, 200 μl/well), and the plate was incubated at 37° C. for 60 minutes. The plate was treated with 1000-fold diluted enzyme (HRP)-labelled anti-mouse IgG polyclonal antibody at 37° C. for 60 minutes, and thereto was added HRP chromogenic substrate (0.1 M phosphate buffer containing 0.4 mg/ml O-phenylenediamine,0.01% hydrogen peroxide, 0.1 M citric acid, pH 5), and reacted at room temperature for 15 minutes. The reaction was terminated by adding thereto 4.5 M sulfuric acid at a volume of 25 μl/well, and the absorbance at 490 nm was measured.

The next assay deals with human fibronectin. Kind of assay: Binding assay of platelet to adhesive protein: fibronectin (receptor binding inhibition). To be noted: Table 4; fixed activated human platelets, 37° C., 60 minutes. As to the method:
as §1, §2

Another assay concerns human vitronectin. The assay can be described thus: Binding assay of platelet to adhesive protein: vitronectin (receptor binding inhibition). To be noted: Table 4; fixed activated human platelets, 37° C., 60 minutes; read-out: receptor binding inhibition (IC50), Bitronectin. As to the method: as §1, §2
Assay [2] relates to platelet aggregation. Kind of assay: Platelet aggregation inhibitory activity (ex vivo) after oral administration. It is filed as in vivo. The following applies: Cavia porcellus, guinea pig, oral 0.1 mg/kg, ADP 10 μg/ml. As to the method: A canula for collecting blood was inserted into the left common carotid artery of a guinea pig which was anesthetized with pentobarbital (30 mg/kg, i.p.). The blood (1 ml) was taken with a syringe containing 1/10 volume of 3.8% sodium citrate (Kettin-citrate, manufactured by Kokusai Shiyaku Ltd.), and the platelet aggregation ability thereof was measured (as a value before administration). Then, a test compound was orally administered to the guinea pig at a dose of 0.1 mg/kg in a volume of 5 ml/kg, and the blood was collected periodically likewise at 0.5, 1, 2, 4 and 6 hours after the administration of the test compound, and the platelet aggregation ability thereof was measured.
The determination of the platelet aggregation ability was carried out by turbidimetry using a Hematracer (Niko Bioscience) as follows. That is, the blood was centrifuged at 4500 rpm at room temperature for 10 seconds, and the supernatant was considered as platelet rich plasma (PRP), and the precipitate was centrifuged at 11000 rpm for two minutes and its supernatant was considered as platelet poor plasma (PPP), and the photo-transmittance of the PRP and the PPP was adjusted to 0%, and 100%, respectively. A cubet containing PRP (200 μl) was inserted to a measurement well, and […] at 1000 rpm at 37° C. for two minutes, and thereto was added a platelet aggregator; ADP (adenosine diphosphate, Sigma Ltd., 20 μl, final concentration; 10 μg/ml), and the maximum aggregation rate was measured. From the maximum aggregation rate before the administration of the test compound (MAR control) and the maximum aggregation rate after the administration of the test compound (MAR sample), the platelet aggregation inhibitory rate of each test compound was estimated according to the following equation.
Inhibitory rate (%)=(1-(MAR sample/MAR control))×100
The periodical change in the platelet aggregation inhibitory rate of each test compound at a dose of 0.1 mg/kg of oral administration is shown in Table 5.

Where [3] appears, read: Table 2, same manner as Example 17.
The mark [4] stands for this setting: 0.5 hr, read-out: platelet aggregation inhibitory rate (%), 0.5 hr.
Where [5] appears, read: 1 hr, read-out: platelet aggregation inhibitory rate (%), 1 hr.
[6] abbreviates: 2 hrs, read-out: platelet aggregation inhibitory rate (%), 2 hrs.
[7] abbreviates: 4 hrs, read-out: platelet aggregation inhibitory rate (%), 4 hrs.
The mark [8] stands for this setting: 6 hrs, read-out: platelet aggregation inhibitory rate (%), 6 hrs.
Where [9] appears, read: Table 3, same manner as Example 17.

T1 sequence (P08514 32-887 limits assumed): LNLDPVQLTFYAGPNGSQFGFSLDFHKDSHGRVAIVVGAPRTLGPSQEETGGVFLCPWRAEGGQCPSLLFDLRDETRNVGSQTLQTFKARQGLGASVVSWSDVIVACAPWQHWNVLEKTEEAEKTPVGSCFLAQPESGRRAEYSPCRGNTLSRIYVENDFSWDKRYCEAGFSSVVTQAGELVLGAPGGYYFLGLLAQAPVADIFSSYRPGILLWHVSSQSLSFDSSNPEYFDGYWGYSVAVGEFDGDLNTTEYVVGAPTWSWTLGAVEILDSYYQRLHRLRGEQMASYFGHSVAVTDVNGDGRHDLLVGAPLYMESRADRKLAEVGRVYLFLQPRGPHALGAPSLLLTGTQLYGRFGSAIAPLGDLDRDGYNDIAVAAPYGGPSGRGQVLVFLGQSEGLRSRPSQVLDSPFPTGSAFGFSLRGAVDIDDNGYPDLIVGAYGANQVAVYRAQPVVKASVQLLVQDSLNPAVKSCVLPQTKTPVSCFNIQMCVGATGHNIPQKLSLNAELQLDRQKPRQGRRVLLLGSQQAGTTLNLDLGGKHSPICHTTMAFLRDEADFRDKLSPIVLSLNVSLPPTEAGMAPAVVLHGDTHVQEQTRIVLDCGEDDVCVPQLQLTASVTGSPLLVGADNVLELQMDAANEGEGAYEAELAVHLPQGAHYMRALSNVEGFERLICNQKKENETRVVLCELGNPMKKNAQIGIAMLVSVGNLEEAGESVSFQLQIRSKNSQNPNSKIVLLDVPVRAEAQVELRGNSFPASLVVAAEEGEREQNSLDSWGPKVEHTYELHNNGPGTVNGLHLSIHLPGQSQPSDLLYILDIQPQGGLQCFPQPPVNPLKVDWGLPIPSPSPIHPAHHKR
T1 sequence (P08514 891-1039 limits assumed): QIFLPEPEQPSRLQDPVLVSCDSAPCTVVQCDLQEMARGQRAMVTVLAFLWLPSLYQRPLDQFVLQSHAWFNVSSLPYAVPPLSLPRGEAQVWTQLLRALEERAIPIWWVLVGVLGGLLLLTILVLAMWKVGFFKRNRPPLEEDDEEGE
T1 sequence (P05106 27-788): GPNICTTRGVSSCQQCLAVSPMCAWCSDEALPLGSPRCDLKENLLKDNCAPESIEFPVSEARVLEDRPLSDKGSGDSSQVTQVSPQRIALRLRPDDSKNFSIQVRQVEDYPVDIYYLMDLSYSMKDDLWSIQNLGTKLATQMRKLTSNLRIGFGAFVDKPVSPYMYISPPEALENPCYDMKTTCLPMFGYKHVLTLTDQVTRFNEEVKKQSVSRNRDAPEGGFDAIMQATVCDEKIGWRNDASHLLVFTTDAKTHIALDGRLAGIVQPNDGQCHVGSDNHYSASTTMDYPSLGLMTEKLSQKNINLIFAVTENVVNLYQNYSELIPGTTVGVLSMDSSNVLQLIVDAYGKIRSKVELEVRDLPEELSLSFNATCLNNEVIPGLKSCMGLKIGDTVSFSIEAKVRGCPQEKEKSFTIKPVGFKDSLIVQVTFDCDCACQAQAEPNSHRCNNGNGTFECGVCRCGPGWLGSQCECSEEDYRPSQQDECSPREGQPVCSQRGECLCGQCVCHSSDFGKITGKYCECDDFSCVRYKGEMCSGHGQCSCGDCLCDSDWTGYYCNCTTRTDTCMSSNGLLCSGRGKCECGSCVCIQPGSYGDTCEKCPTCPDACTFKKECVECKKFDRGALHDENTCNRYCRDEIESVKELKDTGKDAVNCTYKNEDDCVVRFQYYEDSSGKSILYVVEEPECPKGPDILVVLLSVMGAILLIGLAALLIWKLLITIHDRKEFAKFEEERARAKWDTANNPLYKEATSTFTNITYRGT

On to `COc1ccc(S(=O)(=O)N[C@@H](CNC(=O)CCCCOc2ccc(C(=N)N)cc2)C(=O)O)cc1` [Example 63, (2S)-3-(5-(4-amidinophenoxy)pentanoylamino)-2-(4-methoxy)benzenesulfonylaminopropanoic Acid], for which the IC50 – broadly, the concentration needed to halve the response being measured – in the assay with platelet aggregation [1] (setting [3]) is 15 nM; at human fibrinogen it was 2.2 nM; in the assay on human fibronectin, 41 nM; with human vitronectin it was 130 nM. Further, the inhibition in vivo at 0.1 mg/kg stood at 57% in the assay with platelet aggregation [2] (setting [4]); 48% in the assay on platelet aggregation [2] (setting [5]); 26% in the assay on platelet aggregation [2] (setting [6]); 3% in the assay with platelet aggregation [2] (setting [7]); 0% in the assay on platelet aggregation [2] (setting [8]).

Turning to `N=C(N)c1ccc(OCCCCC(=O)NC[C@H](NS(=O)(=O)c2ccccc2)C(=O)O)cc1` [Example 64, (2S)-3-(5-(4-amidinophenoxy)pentanoylamino)-2-benzenesulfonylaminopropanoic Acid], the IC50 in the assay on platelet aggregation [1] (setting [3]) was 32 nM; at human fibrinogen, 24 nM; in the assay with human fibronectin, 280 nM; in the assay with human vitronectin it was 4800 nM. Further, the inhibition in vivo at 0.1 mg/kg in the assay on platelet aggregation [2] (setting [4]) was determined as 50%; in the assay with platelet aggregation [2] (setting [5]), 0%; in the assay on platelet aggregation [2] (setting [6]) it was 0%; in the assay with platelet aggregation [2] (setting [7]) it was 0%; in the assay on platelet aggregation [2] (setting [8]) it was 0%.

`N=C(N)c1ccc(N2CCC(CC(=O)NC[C@H](NS(=O)(=O)c3ccccc3)C(=O)O)CC2)cc1` [Example 69, (2S)-3-(2-(1-(4-amidinophenyl)-4-piperidyl)ethanoylamino)-2-benzenesulfonylaminopropanoic Acid]: the 50% inhibitory concentration (IC50) with platelet aggregation [1] (setting [3]) stood at 29 nM; at human fibrinogen, 9.8 nM; in the assay on human fibronectin, 60 nM; in the assay with human vitronectin, 970 nM. For the same compound, the inhibition in vivo at 0.1 mg/kg is 69% with platelet aggregation [2] (setting [4]); 39% with platelet aggregation [2] (setting [5]); 22% with platelet aggregation [2] (setting [6]); 6% with platelet aggregation [2] (setting [7]); 3% in the assay on platelet aggregation [2] (setting [8]).

In the case of `Cc1ccccc1S(=O)(=O)N[C@@H](CNC(=O)CCNC(=O)c1ccc(C(=N)N)cc1)C(=O)O` [Example 74, (2S)-3-(3-(4-amidinobenzoylamino)propanoylamino)-2-(2-methyl)benzenesulfonylaminopropanoic Acid], the IC50 was 14 nM in the assay on platelet aggregation [1] (setting [9]), 22 nM at human fibrinogen, 540 nM in the assay with human fibronectin and 3500 nM in the assay with human vitronectin. In addition, the inhibition in vivo at 0.1 mg/kg in the assay on platelet aggregation [2] (setting [4]) amounted to 92%; in the assay with platelet aggregation [2] (setting [5]), 100%; with platelet aggregation [2] (setting [6]), 100%; with platelet aggregation [2] (setting [7]), 100%; in the assay on platelet aggregation [2] (setting [8]), 100%.

As for `Cc1cccc(S(=O)(=O)N[C@@H](CNC(=O)CCNC(=O)c2ccc(C(=N)N)cc2)C(=O)O)c1` [Example 75, (2S)-3-(3-(4-amidinobenzoylamino)propanoylamino)-2-(3-methyl)benzenesulfonylaminopropanoic Acid], the half-inhibitory concentration (IC50) with platelet aggregation [1] (setting [9]) worked out at 34 nM; at human fibrinogen, 8.1 nM; with human fibronectin, 110 nM; in the assay with human vitronectin it was 1600 nM. Moreover, the inhibition in vivo at 0.1 mg/kg was found to be 74% in the assay with platelet aggregation [2] (setting [4]); 82% in the assay on platelet aggregation [2] (setting [5]); 100% in the assay with platelet aggregation [2] (setting [6]); 90% with platelet aggregation [2] (setting [7]); 74% in the assay with platelet aggregation [2] (setting [8]).

As for `Cc1ccc(S(=O)(=O)N[C@@H](CNC(=O)CCNC(=O)c2ccc(C(=N)N)cc2)C(=O)O)cc1` [Example 76, (2S)-3-(3-(4-amidinobenzoylamino)propanoylamino)-2-(4-methyl)benzenesulfonylaminopropanoic Acid], the 50% inhibitory concentration (IC50) in the assay with platelet aggregation [1] (setting [9]) worked out at 17 nM; on human fibrinogen it was 6.3 nM; with human fibronectin it was 510 nM; in the assay on human vitronectin, 540 nM. Besides, the inhibition in vivo at 0.1 mg/kg in the assay on platelet aggregation [2] (setting [4]), with platelet aggregation [2] (setting [5]), in the assay on platelet aggregation [2] (setting [6]), with platelet aggregation [2] (setting [7]) and with platelet aggregation [2] (setting [8]) was 100% in each case.

For the compound `N=C(N)c1ccc(C(=O)NCCC(=O)NC[C@H](NS(=O)(=O)c2ccccc2[N+](=O)[O-])C(=O)O)cc1` [Example 77, (2S)-3-(3-(4-amidinobenzoylamino)propanoylamino)-2-(2-nitro)benzenesulfonylaminopropanoic Acid], the IC50 with platelet aggregation [1] (setting [9]) turned out to be 65 nM; at human fibrinogen, 6.7 nM; in the assay on human fibronectin it was 54 nM; in the assay with human vitronectin it was 670 nM. In addition, the inhibition in vivo at 0.1 mg/kg in the assay on platelet aggregation [2] (setting [4]) is 100%; with platelet aggregation [2] (setting [5]), 100%; in the assay with platelet aggregation [2] (setting [6]), 100%; with platelet aggregation [2] (setting [7]) it was 100%; in the assay with platelet aggregation [2] (setting [8]), 97%.

As for `N=C(N)c1ccc(C(=O)NCCC(=O)NC[C@H](NS(=O)(=O)c2ccc(F)cc2)C(=O)O)cc1` [Example 78, (2S)-3-(3-(4-amidinobenzoylamino)propanoylamino)-2-(4-fluoro)benzenesulfonylaminopropanoic Acid], the IC50 with platelet aggregation [1] (setting [9]) stood at 16 nM; on human fibrinogen, 9 nM; with human fibronectin it was 25 nM; in the assay with human vitronectin, 160 nM. In addition, the inhibition in vivo at 0.1 mg/kg came to 99% in the assay on platelet aggregation [2] (setting [4]); 100% in the assay with platelet aggregation [2] (setting [5]); 100% in the assay on platelet aggregation [2] (setting [6]); 100% in the assay on platelet aggregation [2] (setting [7]); 100% in the assay on platelet aggregation [2] (setting [8]).

Take `CCc1ccc(S(=O)(=O)N[C@@H](CNC(=O)CCNC(=O)c2ccc(C(=N)N)cc2)C(=O)O)cc1` [Example 80, (2S)-3-(3-(4-amidinobenzoylamino)propanoylamino)-2-(4-ethyl)benzenesulfonylaminopropanoic Acid]: the IC50 in the assay with platelet aggregation [1] (setting [9]) was determined as 17 nM; on human fibrinogen it was 10 nM; with human fibronectin, 390 nM; in the assay with human vitronectin, 4900 nM. Besides, the inhibition in vivo at 0.1 mg/kg in the assay on platelet aggregation [2] (setting [4]) was determined as 100%; with platelet aggregation [2] (setting [5]) it was 100%; in the assay on platelet aggregation [2] (setting [6]), 75%; in the assay with platelet aggregation [2] (setting [7]) it was 79%; with platelet aggregation [2] (setting [8]), 74%.
